Test results published in patent publication US20030087906A1, “NITROGEN SUBSTITUTED BIARYL PURINE DERIVATIVES AS POTENT ANTIPROLIFERATIVE AGENTS” (priority 2001, published 2003).
Values joined by “and” are separate entries in the source; they are usually repeats but may differ in a detail not shown here. Identical values can stand only once.

Experiments:
CyclinB/cdk1 = target: T1, CyclinB/cdk1 (Homo sapiens, UniProt P06493); assay: CyclinB/cdk1 protein kinase assay (histone H1 phosphorylation); type: biochemical; conditions: complex immunopurified from HeLa cells; 15 μM ATP; replicate experiments
T1 construct: Monoclonal antibody against cyclinB (GNS1) is added to the supernatant; endogenous in cells
Description: HeLa cells are blocked at the G1/S border by culturing in the presence of 2 mM thymidine for 20 h. The cells are then rinsed 3×in phosphate buffered saline and resuspended in regular medium. After 4 h of culture, the mitotic blocker, nocodazole is added to a final concentration of 75 ng/ml. […] The lysate is then clarified by centrifugation at 10,000×g for 10 min. The supernatant is collected and diluted 1:5 with Lysis Buffer. Monoclonal antibody against cyclinB (GNS1) is added to the supernatant to a final concentration of 5 μg/ml and shaken at 4° C. for 2 h. The immune complexes are then collected by the addition of 200 μl of protein agarose beads for 1 h. The beads are washed 4×in lysis buffer and 1×in kinase assay buffer.
Duplicate assays were performed at each concentration.

CyclinA/cdk2 = CyclinA/cdk2 (Homo sapiens, UniProt P24941); assay: CyclinA/cdk2 protein kinase assay (histone H1 phosphorylation); conditions: IC50 CyclinA/cdk2, complex immunopurified from HeLa cells; 15 μM ATP; replicate experiments
CyclinE/cdk2 = CyclinE/cdk2 (Homo sapiens, UniProt P24941); assay: CyclinE/cdk2 protein kinase assay (histone H1 phosphorylation); conditions: IC50 CyclinE/cdk2, complex immunopurified from HeLa cells; 15 μM ATP; replicate experiments
HeLa S-3 cells = assay: Inhibition of cell growth of HeLa cells (SRB); type: cell-based, human; conditions: 2 days of treatment, replicate experiments
Description: Growth inhibition (GI50) values were measured with HeLa S-3 cells selected for growth on plastic. […] One day later, a control plate was fixed by addition of TCA to 5%. After five rinses with tap water the plate was air dried and stored at 4° C. Test compounds were added to the remaining plates at 10-fold dilutions between 0.01 and 100 μM. Two days later all plates were fixed as described above. Cells were then stained by the addition of 100 μl per well of 0.4% sulforhodamine B (SRB) in 1% acetic acid for 30 min at 4° C. Wells were then quickly rinsed 5×with acetic acid (1%) and allowed to air dry. The SRB was then solubilized by the addition of 100 μl per well of unbuffered 10 mM Tris base. Dye was quantified by measuring absorbance at 490 nm on a Molecular Devices kinetic microplate reader. Growth at each inhibitor concentration relative to the untreated control was calculated according to the following equation: percent growth=100×(T−To)/(C−To), where T was the average optical density (OD) of the test wells after 2 days of treatment, To was the average OD of the wells in the control plate on day 0 and C was the average OD of untreated wells. Plots of percent growth versus inhibitor concentration were used to determine the GI50.

T1 sequence (P06493 whole entry): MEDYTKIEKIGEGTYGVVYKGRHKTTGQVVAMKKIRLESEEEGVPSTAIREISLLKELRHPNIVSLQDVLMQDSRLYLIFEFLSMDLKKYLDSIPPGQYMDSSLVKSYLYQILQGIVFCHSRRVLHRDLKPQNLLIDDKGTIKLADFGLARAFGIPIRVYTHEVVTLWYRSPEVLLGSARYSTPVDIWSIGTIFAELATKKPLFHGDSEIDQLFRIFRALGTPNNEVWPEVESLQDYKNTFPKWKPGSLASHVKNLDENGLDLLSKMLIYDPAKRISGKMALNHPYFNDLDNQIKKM
T1 sequence (P14635 whole entry partner): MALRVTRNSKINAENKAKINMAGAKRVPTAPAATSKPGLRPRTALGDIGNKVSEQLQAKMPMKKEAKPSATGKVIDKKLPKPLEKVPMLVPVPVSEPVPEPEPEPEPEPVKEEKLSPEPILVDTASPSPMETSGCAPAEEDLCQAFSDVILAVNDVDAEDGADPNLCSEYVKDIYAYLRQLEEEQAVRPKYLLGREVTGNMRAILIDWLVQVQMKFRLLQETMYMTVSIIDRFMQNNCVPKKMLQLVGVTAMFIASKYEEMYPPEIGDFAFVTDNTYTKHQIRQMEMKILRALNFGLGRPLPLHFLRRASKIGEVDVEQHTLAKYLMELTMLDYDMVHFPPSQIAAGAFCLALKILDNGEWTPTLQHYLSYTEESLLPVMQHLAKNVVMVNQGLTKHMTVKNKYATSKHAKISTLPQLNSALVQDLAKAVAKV

| SMILES | IC50 (CyclinB/cdk1) [µM] | melting point [°C] | IC50 (CyclinA/cdk2) | IC50 (CyclinE/cdk2) | GI50 (HeLa S-3 cells; Homo sapiens, HeLa S3, 48 h) [µM] | GI50 (HeLa S-3 cells) |
| --- | --- | --- | --- | --- | --- | --- |
| CC(=O)N[C@H]1CC[C@H](Nc2nc(NCc3ccc(-c4ccccc4)cc3)c3ncn(C(C)C)c3n2)CC1 [Compound 76] | 6 | 224 to 225 | 12 µM and 11 µM and 3 µM | 3 µM and 5 µM and 2 µM |  |  |
| CC(C)n1cnc2c(NCc3ccc(-c4ccccc4)cc3)nc(N[C@H]3CC[C@H](O)CC3)nc21 [Compound 77] | > 10 | 196 to 200 | > 10 µM | 4 µM and 14 µM |  |  |
| CC(=O)N[C@H]1CC[C@H](Nc2nc(NCc3ccc(-c4ccc(C(=O)O)cc4)cc3)c3ncn(C(C)C)c3n2)CC1 [Compound 116] |  | 344 to 347 | > 10 µM | > 10 µM | > 10 |  |
| CC(C)n1cnc2c(NCc3ccc(-c4ccsc4)nc3)nc(N[C@H]3CC[C@H](N)CC3)nc21 [Compound 123] |  | 78 to 81 | 0.2 µM | 0.04 µM |  | < 0.001 µM and 0.0001 µM |
